Source: patent US20210086176A1, “Analyte Detection method” (The Board of Trustees of the Leland Stanford Junior …, priority 2017, published 2021)

What was measured:
[1] = inhalation; cited from earlier work
[2] = in vivo; cited from earlier work
[3] = mouse, in vivo, po, 10 mg/kg

SMILES: CC#N [acetonitrile]
- acetonitrile in inhaled air that can induce toxic effects [1]: 100 ppm

SMILES: CCC(=O)C(CC(C)N(C)C)(c1ccccc1)c1ccccc1 (stereo not drawn) [methadone]
- minimally effective plasma analgesic concentration (MEAC) [2]: 60 ng/mL

SMILES: Cc1nccn1CC1CCc2c(c3ccccc3n2C)C1=O (stereo not drawn) [ondansetron]
- slope of trend line, plasma (y) versus whole blood (x) ondansetron concentration [3]: 0.973
